Read-outs that look alike come from different tables or passages of the source.
Assays:
CFTR [1] = molecular target: T1, CFTR (Homo sapiens, UniProt P13569); assay: Short-circuit current (apical Cl− current) analysis on permeabilized CFTR-expressing FRT cells; settings: for inhibition at 50 µM: FRT, read-out: % inhibition at 50 μM; for change of inhibitory potency relative to parent compound: vs GlyH-101 / GlyH-102
Target sequence in this assay (P13569 whole entry): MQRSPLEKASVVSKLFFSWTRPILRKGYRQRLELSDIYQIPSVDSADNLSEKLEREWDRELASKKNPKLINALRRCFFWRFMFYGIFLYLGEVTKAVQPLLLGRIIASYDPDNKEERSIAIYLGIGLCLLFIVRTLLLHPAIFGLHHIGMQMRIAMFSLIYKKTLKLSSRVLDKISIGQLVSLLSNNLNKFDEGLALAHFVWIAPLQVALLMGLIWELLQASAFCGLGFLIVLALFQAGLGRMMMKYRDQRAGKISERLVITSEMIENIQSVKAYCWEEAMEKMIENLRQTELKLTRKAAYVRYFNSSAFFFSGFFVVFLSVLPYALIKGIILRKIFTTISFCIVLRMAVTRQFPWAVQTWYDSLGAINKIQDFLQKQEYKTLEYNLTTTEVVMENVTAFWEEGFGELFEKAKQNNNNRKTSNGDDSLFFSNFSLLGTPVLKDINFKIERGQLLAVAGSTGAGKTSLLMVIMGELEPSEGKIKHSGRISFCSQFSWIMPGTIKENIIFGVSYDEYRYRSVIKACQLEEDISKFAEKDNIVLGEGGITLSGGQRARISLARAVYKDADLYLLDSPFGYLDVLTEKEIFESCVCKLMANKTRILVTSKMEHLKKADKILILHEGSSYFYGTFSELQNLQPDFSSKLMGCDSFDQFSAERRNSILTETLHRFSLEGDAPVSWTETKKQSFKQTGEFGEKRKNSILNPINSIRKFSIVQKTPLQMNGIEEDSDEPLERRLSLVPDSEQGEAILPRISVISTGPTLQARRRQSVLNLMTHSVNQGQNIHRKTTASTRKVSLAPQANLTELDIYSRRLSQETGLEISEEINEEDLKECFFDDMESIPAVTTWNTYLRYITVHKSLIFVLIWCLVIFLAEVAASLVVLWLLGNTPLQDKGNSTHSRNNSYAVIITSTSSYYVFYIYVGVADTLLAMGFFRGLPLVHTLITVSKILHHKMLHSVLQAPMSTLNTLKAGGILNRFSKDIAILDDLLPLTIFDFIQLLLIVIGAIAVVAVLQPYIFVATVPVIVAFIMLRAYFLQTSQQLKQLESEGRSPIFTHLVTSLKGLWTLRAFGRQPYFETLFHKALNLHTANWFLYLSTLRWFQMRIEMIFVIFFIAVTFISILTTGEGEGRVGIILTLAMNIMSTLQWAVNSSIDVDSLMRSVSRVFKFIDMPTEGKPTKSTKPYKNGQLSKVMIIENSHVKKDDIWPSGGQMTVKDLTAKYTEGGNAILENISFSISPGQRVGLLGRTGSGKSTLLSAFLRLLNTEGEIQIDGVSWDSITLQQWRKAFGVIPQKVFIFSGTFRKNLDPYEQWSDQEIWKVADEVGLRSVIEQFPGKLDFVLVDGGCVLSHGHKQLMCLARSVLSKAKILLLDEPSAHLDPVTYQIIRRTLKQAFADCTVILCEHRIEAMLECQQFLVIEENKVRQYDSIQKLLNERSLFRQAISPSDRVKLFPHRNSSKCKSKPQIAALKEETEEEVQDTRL

CFTR [2] = molecular target: T1, CFTR; assay: Whole-cell patch-clamp on FRT cells expressing CFTR; assay type: cell-based; parameters: expressed in transfected cells; host or cells: Fisher Rat Thyroid (FRT) cells, stably transfected; settings: GlyH-101 at submaximal concentrations; CFTRinh-172 5 μM
Experimental: Patch-clamp experiments were carried out at room temperature on FRT cells stably expressing wildtype CFTR. Cell-attached and whole-cell configurations were used (Hamill et al., Pflugers Arch. 391:85-100, 1981). The cell membrane was clamped at specified voltages using an EPC-7 patch-clamp amplifier (List Medical). Data were filtered at 500 Hz and digitized at 2000 Hz. For whole-cell experiments the pipette solution contained (in mM): 120 CsCl, 10 TEA-Cl, 0.5 EGTA, 1 MgCl2, 40 mannitol, 10 Cs-HEPES and 3 mM MgATP (pH 7.3). For cell attached experiments EGTA was replaced with 1 mM CaCl2. The bath solution for whole-cell experiments contained (in mM): 150 NaCl, 1 CaCl2, 1 MgCl2, 10 glucose, 10 mannitol, 10 Na-TES (pH 7.4). In cell-attached experiments the bath solution contained (in mM): 130 KCl, 2 NaCl, 2 CaCl2, 2 MgCl2, 10 glucose, 20 mannitol, and 10 K-Hepes (pH 7.3). Inhibitors were applied by extracellular perfusion. CFTR channel activity in cell-attached patches was analyzed as described previously (Taddei et al., FEBS Lett. 558:52-56, 2004).
The mechanism of CFTR block by GlyH-101 was studied using the whole-cell configuration of the patch-clamp technique. After maximal activation of CFTR in stably transfected FRT cells by 5 μM forskolin, current-voltage relationships were measured at GlyH-101 concentrations from 0 to 50 μM. […] Extracellular perfusion with 10 μM GlyH-101 produced an immediate reduction in current that was strongly dependent on membrane potential (FIG. 4A, right panel). At more positive membrane potentials outward positive currents (Cl^− movement into the cell) were reduced compared to inward currents. […] Data for the thiazolidinone 3-[(3-trifluoromethyl)phenyl]-5-[(4-carboxyphenyl)methylene]-2-thioxo-4-thiazolidinone (referred to herein as CFTRinh-172) (5 μM) is shown for comparison. […] FIG. 4C summarizes percentage CFTR current block as a function of GlyH-101 concentration at different membrane voltages.
Target sequence in this assay (P13569 whole entry): as above

CFTR [3] = molecular target: T1, CFTR; parameters: host or cells: 'permeabilized cell preparations' and 'most intact epithelial cells' (not specified); settings: cited from earlier work
Target sequence in this assay (P13569 whole entry, species assumed): as the sequence (P13569 whole entry) above

[4] = Intestinal absorption in closed mid-jejunal loops; assay type: in vivo; settings: mice, 2 hours
Experimental: Absorption studies were performed using mid-jejunal loops created as described above. […] After 2 hours loop fluid was withdrawn and optical absorbance of test compound and FITC were measured (OD342/OD494nm). Percentage intestinal absorption was computed assuming zero absorption of FITC-dextran.
Intestinal absorption was measured in mice in vivo from the disappearance of MalH compounds from the lumens of closed mid-jejunal loops over 2 hours. In these experiments mannitol was included in the MalH-containing solutions to prevent fluid absorption. Absorption rates were referenced against a large FITC-dextran, which was assumed to undergo no absorption over the 2 hour study.

[5] = test system: upper airway CFTR Cl− conductance; assay: Nasal potential difference measurements in mice; settings: compound in all solutions (100 μM)
[6] = Spectrophotometric pH titration (pKa); assay type: physicochemical; settings: read-out: pKa, secondary amine
Experimental: FIG. 5A is a graph illustrating the pH-dependent absorbance changes (right panel) of the chemical compounds (10 μM) (corresponding chemical structures, left panel) in NaCl (100 mM) containing MES, HEPES, boric acid, and citric acid (each 10 mM) titrated to different pH using HCl/NaOH. Absorbance changes measured at analytical wavelengths of 346, 348, 346, and 236 nm (top to bottom).

[7] = Ki, Table 4, Group IV, concentration giving 50% inhibition of CFTR Cl− conductance
[8] = Table 1, Group I, concentration giving 50% inhibition of CFTR Cl− conductance
[9] = Ki, Table 1, Group I, concentration giving 50% inhibition of CFTR Cl− conductance
[10] = Ki, Table 2, Group II, concentration giving 50% inhibition of CFTR Cl− conductance
[11] = Ki, Table 3, Group III, concentration giving 50% inhibition of CFTR Cl− conductance

Row | SMILES | inhibition at 50 µM (CFTR [1]) | Ki (CFTR [1]; [9]) | other results
1 | O=C(COc1ccc2ccccc2c1)NN=Cc1cc(Br)c(O)c(Br)c1O [AceH-401] | 84% |  | Ki (CFTR [1]; [7]): 21 µM
2 | O=C(COc1ccc2ccccc2c1)NN=Cc1cc(Br)c(O)c(Br)c1 [AceH-402] | 86% |  | Ki (CFTR [1]; [7]): 17 µM
3 | Cc1ccc(CC(=O)NN=Cc2cc(Br)c(O)c(Br)c2O)cc1 [AceH-403] | 54% |  | Ki (CFTR [1]; [7]): 10 µM
4 | Cc1ccc(CC(=O)NN=Cc2cc(Br)c(O)c(Br)c2)cc1 [AceH-404] | 63% |  | Ki (CFTR [1]; [7]): 15 µM
5 | O=C(O)c1ccc(C=C2SC(=S)N(c3cccc(C(F)(F)F)c3)C2=O)cc1 [CFTRinh-172, 3-[(3-trifluoromethyl)phenyl]-5-[(4-carboxyphenyl)methylene]-2-thioxo-4-thiazolidinone] |  |  | current-voltage relationship (CFTR [2]): linear; Ki (CFTR [3]; most intact epithelial cells): 2 to 5 µM; Ki (CFTR [3]; permeabilized cell preparations): 0.2 to 0.3 µM; absorption from closed mid-jejunal loops [4]: > 90%
6 | O=S(=O)(O)c1cc(N=C=S)ccc1C=Cc1ccc(N=C=S)cc1S(=O)(=O)O [DIDS, reference compound] |  |  | inhibition of (CFTR-independent) hyperpolarization produced by low Cl− [5]: partial inhibition
7 | O=C(CNc1ccc2ccccc2c1)N/N=C/c1cc(Br)c(O)c(Br)c1 [GlyH-102] |  |  | % inhibition at 50 μM (CFTR [1]; Table 1, Group I): 98%; Ki (CFTR [1]; [8]): 5 µM
8 | COc1c(Br)cc(C=NNC(=O)CNc2ccc3ccccc3c2)c(O)c1Br [GlyH-103] | 56% | 20 µM | 
9 | O=C(CNc1cccc2ccccc12)NN=Cc1cc(Br)c(O)c(Br)c1O [GlyH-104] | 86% | 12 µM | change of inhibitory potency relative to parent compound (CFTR [1]): ten-fold
10 | O=C(CNc1cccc2ccccc12)NN=Cc1cc(Br)c(O)c(Br)c1 [GlyH-105] | 87% | 15 µM | 
11 | CC(Nc1ccc2ccccc2c1)C(=O)NN=Cc1cc(Br)c(O)c(Br)c1O (stereo not shown) [GlyH-106] |  |  | % inhibition at 50 μM (CFTR [1]; Table 1, Group I): 91%; Ki (CFTR [1]; [8]): 6 µM
12 | CC(Nc1ccc2ccccc2c1)C(=O)NN=Cc1cc(Br)c(O)c(Br)c1 (stereo not shown) [GlyH-107] | 80% | 10 µM | 
13 | CC(=NNC(=O)CNc1ccc2ccccc2c1)c1cc(Br)c(O)c(Br)c1O [GlyH-108] |  |  | % inhibition at 50 μM (CFTR [1]; Table 1, Group I): 81%; Ki (CFTR [1]; [8]): 10 µM
14 | CC(=NNC(=O)CNc1ccc2ccccc2c1)c1cc(Br)c(O)c(Br)c1 [GlyH-109] | 100% | 2.5 µM | 
15 | O=C(CNc1ccc(Cl)cc1)NN=Cc1cc(Br)c(O)c(Br)c1 [GlyH-114] | 95% | 5 µM | 
16 | O=C(CNc1ccc(Cl)cc1)NN=Cc1cc(Br)c(O)c(Br)c1O [GlyH-115] | 91% | 5 µM | 
17 | Cc1ccc(NCC(=O)NN=Cc2cc(Br)c(O)c(Br)c2O)cc1 [GlyH-116] | 79% | 10 µM | 
18 | O=C(CNc1ccc2ccccc2c1)NNC(=O)c1cc(Br)c(O)c(Br)c1 [GlyH-202, 3,5-dibromo-4-hydroxy-[2-(2-napthalenamine)aceto]benzoic acid hydrazide] | 57% |  | Ki (CFTR [1]; [10]): 22 µM
19 | O=C(CNc1ccc2ccccc2c1)NNCc1cc(Br)c(O)c(Br)c1 [GlyH-302] | 55% |  | Ki (CFTR [1]; [11]): ~50 µM
20 | O=C(NN=Cc1cc(Br)c(O)c(Br)c1O)C(=O)Nc1ccc2ccccc2c1 [OxaH-110, N-2-napthalenyl-[(3,5-dibromo-2,4-dihydroxyphenyl)methylene]oxamic acid hydrazide] | 86% | 2 µM | Ki (CFTR [1]; apparent Ki, CFTR stimulated by 100 μM CPT-cAMP): ~2 µM; change of inhibitory potency relative to parent compound (CFTR [1]): two-three fold greater
21 | O=C(NN=Cc1cc(Br)c(O)c(Br)c1)C(=O)Nc1ccc2ccccc2c1 [OxaH-111] | 52% | 2.5 µM | change of inhibitory potency relative to parent compound (CFTR [1]): two-three fold greater
22 | CC(=NNC(=O)C(=O)Nc1ccc2ccccc2c1)c1cc(Br)c(O)c(Br)c1O [OxaH-112] | 95% | 3 µM | 
23 | CC(=NNC(=O)C(=O)Nc1ccc2ccccc2c1)c1cc(Br)c(O)c(Br)c1 [OxaH-113] | 90% | 3 µM | 
24 | O=C(NNC(=O)c1cc(Br)c(O)c(Br)c1O)C(=O)Nc1ccc2ccccc2c1 [OxaH-203] |  |  | Ki (CFTR [1]; [10]): > 50 µM
25 | O=C(NNC(=O)c1cc(Br)c(O)c(Br)c1)C(=O)Nc1ccc2ccccc2c1 [OxaH-204] |  |  | Ki (CFTR [1]; [10]): > 50 µM
26 | O=C(NNCc1cc(Br)c(O)c(Br)c1O)C(=O)Nc1ccc2ccccc2c1 [OxaH-303] | 70% |  | Ki (CFTR [1]; [11]): 10 µM
27 | O=C(NNCc1cc(Br)c(O)c(Br)c1)C(=O)Nc1ccc2ccccc2c1 [OxaH-304] | 78% |  | Ki (CFTR [1]; [11]): 12 µM
28 | CCOC(=O)CNc1ccc2ccccc2c1 [ethyl N-(2-napthalenyl) glycinate, ethyl N-(2-naphthalenyl)glycinate] |  |  | pKa [6]: ~4.7

— patent US7888332B2, “Hydrazide-containing CFTR inhibitor compounds and uses thereof” (The Regents of the University of California, priority 2004, dated 2011)
